Experimental data: patent US8252559B2, “Methods and systems for selective fluorination of organic molecules” (The California Institute of Technology, priority 2006, dated 2012)

Assay: in vitro
Details: PAMPA; for Papp at 0.5 mg/mL: pig, pH 7.4
Protocol: Effective permeability values (Pe) are calculated by monitoring accumulation of the organic molecule in a cross-membrane compartment. […] M+/M− refers to the fraction of compound that crossed the BBB-mimic membrane as compared to system with no membrane after 16 hour incubation at room temperature. Values are means of three replicates.
Membrane permeability assay. The membrane permeability assays were carried out adapting a described procedure and using 96-well MultiScreen-IP plates from Millipore. Filter plates were rinsed with 70% EtOH and double-distilled water prior to use. BBB-mimic membranes were prepared by coating filter wells with 5 μL porcine brain lipids (PBL, Avanti Polar Lipids) in dodecane (20 mg/mL). Control wells (PBL-free) were primed in the same way but not coated with PBL. Working solutions contained 0.5 mg/mL fluorinated compound in PBS pH 7.4 (5% EtOH). Assembled plates contained 150 μL working solution in the PBL-coated (or PBL-free) well, 300 μL PBS (5% EtOH) in the acceptor well, and were incubated at room temperature and 100% humidity. The change in organic compound concentration in the donor and acceptor wells was monitored over time by HPLC. Membrane permeability values (Pe) were calculated. All measurements were performed in triplicates. The assay was validated by comparing the experimental Pe value for caffeine with that reported in the art.
Ibuprofen has recently shown promising activity against amyloidogenic diseases. Anti-amyloidogenic drugs with high brain permeability are intensively sought after. Compounds 15, 16 and 18 were tested in a membrane permeability assay that mimics the composition of the blood-brain barrier (BBB).

Structure (SMILES): Cn1c(=O)c2c(ncn2C)n(C)c1=O [Caffeine, reference compound]
- Papp at 0.5 mg/mL: 1.24 ×10⁻⁶ cm/s

Structure (SMILES): COC(=O)C(C)c1ccc(CC(C)C)cc1 (centres unmarked) [Compound 12, 2-(4-Isobutyl-phenyl)-propionic acid methyl ester, reference compound]
- Membrane permeability properties / BBB-crossing potential (in words): modest BBB-crossing potential

Structure (SMILES): COC(=O)C(C)c1ccc(C(F)C(C)C)cc1 (centres unmarked) [Compound 15, 2-[4-(1-Fluoro-2-methyl-propyl)-phenyl]-propionic acid methyl ester]
- Membrane permeability properties / BBB-crossing potential (in words): very good
- Papp at 0.5 mg/mL: > 10 ×10⁻⁶ cm/s

Structure (SMILES): COC(=O)C(C)c1ccc(CC(C)(C)F)cc1 (centres unmarked) [Compound 16, 2-[4-(2-Fluoro-2-methyl-propyl)-phenyl]-propionic acid methyl ester]
- Membrane permeability properties / BBB-crossing potential (in words): very good
- Papp at 0.5 mg/mL: > 10 ×10⁻⁶ cm/s

Structure (SMILES): COC(=O)C(C)c1ccc(C(F)C(C)(C)F)cc1 (centres unmarked) [Compound 18, 2-[4-(1,2-Difluoro-2-methyl-propyl)-phenyl]-propionic acid methyl ester]
- Membrane permeability properties / BBB-crossing potential (in words): excellent
- Papp at 0.5 mg/mL: > 10 ×10⁻⁶ cm/s
